Read-outs that look alike come from different tables or passages of the source.
Experiments:
[1] = test system: P. falciparum multidrug-resistant Dd2 strain; experiment: microbe, parasite or virus in culture; assay type: cell-based, Plasmodium falciparum
Protocol: (§1) In an embodiment, hierridin B and hierridin C were tested for in vitro activity towards the P. falciparum strains, in particular P. falciparum 3D7 strain and the multidrug-resistant Dd2 strain to verify whether the chlorine atom featured in hierridin C affects the activity of the compound, in particular the antimalarial activity.
(§2) In an embodiment, the laboratory-adapted P. falciparum 3D7 and Dd2 strains were cultivated on human erythrocytes suspended in RPMI 1640 medium supplemented with 25 mM HEPES, 6.8 mM hypoxanthine and 10% AlbuMAX II (Life Technologies, Carlsbad, Calif., USA), at pH 7.2. Cultures were maintained at 37° C. under an atmosphere of 5% O2, 3-5% CO2 and N2, and synchronized by sorbitol treatment prior to the assays. Staging and parasitaemia were determined by light microscopy of Giemsa-stained thin blood smears.
(§3) In an embodiment, the antimalarial activities of hierridin B and hierridin C were determined using the SYBR Green I (Life Technologies). Early ring stage parasites were tested in triplicate in a 96-well plate and incubated with drugs for 48 h (37° C., 5% CO2), parasite growth was assessed with SYBR Green I. Each compound was tested in a concentration ranging from 10-0.0097 μM (0.2% DMSO). Fluorescence intensity was measured with a multi-mode microplate reader (Triad, Dynex, Chantilly, Va., USA) with excitation and emission wavelengths of 485 nm and 535 nm, respectively, and analyzed by nonlinear regression using GraphPad Prism 5 (GraphPad Software, La Jolla, Calif., USA).

[2] = test system: colon adenocarcinoma HT-29; experiment: Cytotoxicity, cell lines exposed to hierridin C; assay type: cell-based, human; conditions: HT-29, up to 30 μg mL−1 (75.2 μM)
Protocol: (§4) In an embodiment, several cell lines were exposed to hierridin C, in particular to a concentration of hierridin C up to 30 μg mL^−1 (75.2 μM). The cell lines exposed to hierridin C, were in particular the cell lines of hepatocellular carcinoma HepG2, colon adenocarcinoma HT-29, neuroblastoma SH-SY5Y, breast carcinoma T47D, normal prostate cell line PNT2, breast adenocarcinoma, RKO colon carcinoma and MG-63 osteosarcoma.

P. falciparum 3D7 strain = experiment: SYBR Green I antimalarial activity, P. falciparum 3D7; assay type: cell-based, Plasmodium falciparum; conditions: read-out: IC50 P. faldparum 3D7
Protocol: as §1
as §2, with “Cultures were maintained at 37° C. under an atmosphere of 5% O2, 3-5% CO2 and N2, and synchronized by sorbitol treatment prior to the assays.” left out
as §3

[3] = test system: normal prostate cell line PNT2; experiment: Cytotoxicity, cell lines exposed to hierridin C; assay type: cell-based; conditions: PNT2, up to 30 μg mL−1 (75.2 μM)
Protocol: as §4

[4] = test system: hepatocellular carcinoma HepG2; experiment: Cytotoxicity, cell lines exposed to hierridin C; assay type: cell-based; conditions: HepG2, up to 30 μg mL−1 (75.2 μM)
Protocol: as §4

RKO colon carcinoma = experiment: Cytotoxicity, cell lines exposed to hierridin C; assay type: cell-based; conditions: up to 30 μg mL−1 (75.2 μM)
Protocol: as §4

breast adenocarcinoma = experiment: Cytotoxicity, cell lines exposed to hierridin C; assay type: cell-based; conditions: up to 30 μg mL−1 (75.2 μM)
Protocol: as §4

breast carcinoma T47D = experiment: Cytotoxicity, cell lines exposed to hierridin C; assay type: cell-based; conditions: up to 30 μg mL−1 (75.2 μM)
Protocol: as §4

neuroblastoma SH-SY5Y = experiment: Cytotoxicity, cell lines exposed to hierridin C; assay type: cell-based; conditions: up to 30 μg mL−1 (75.2 μM)
Protocol: as §4

MG-63 osteosarcoma = experiment: Cytotoxicity, cell lines exposed to hierridin C; assay type: cell-based; conditions: MG-63, up to 30 μg mL−1 (75.2 μM)
Protocol: as §4

[5] = test system: HT-29 colon adenocarcinoma human cells; conditions: cited from earlier work

In the case of CCCCCCCCCCCCCCCc1c(O)c(OC)cc(OC)c1Cl [Hierridin C, 3-chloro-4,6-dimethoxy-2-pentadecylphenol], the “Resistance indices (RI)” value ([1]; Dd2 versus 3D7) is reported as 0.93, the IC50 ([1]; Plasmodium falciparum, DD2, 48 h, read-out: IC50 P. faldparum Dd2) is reported as 2.31 ± 0.11 µM and the IC50 ([1]; Plasmodium falciparum, DD2, read-out: IC50 in P. falciparum strains) is reported as ~2 µM. For the same compound, the therapeutical index ([1]; relative to IC50 in P. falciparum strains) was “>= 50”, the cytotoxicity [2] was “No cytotoxicity was observed” and the IC50 (P. falciparum 3D7 strain; Plasmodium falciparum, 3D7, 48 h) was 1.52 ± 0.05 µM. The cytotoxicity [3] was “No cytotoxicity was observed”, the cytotoxicity [4] was “No cytotoxicity was observed” and the cytotoxicity (RKO colon carcinoma) was “No cytotoxicity was observed”. For the same compound, the cytotoxicity (breast adenocarcinoma) was “No cytotoxicity was observed”, the cytotoxicity (breast carcinoma T47D) was “No cytotoxicity was observed” and the cytotoxicity (neuroblastoma SH-SY5Y) was “No cytotoxicity was observed”. The cytotoxicity (MG-63 osteosarcoma) was “No cytotoxicity was observed”.
In the case of CCCCCCCCCCCCCCCc1cc(OC)cc(OC)c1O [Hierridin B, reference compound], the IC50 ([1]; Dd2 strain (resistant to chloroquine and mefloquine), 48 h incubation, SYBR Green I, read-out: IC50 P. faldparum Dd2) is given as 2.25 ± 0.67 µM, the “cytotoxicity towards HT-29” value [5] is given as “modest, selective cytotoxicity” and the IC50 (P. falciparum 3D7 strain; 3D7 strain (sensitive to chloroquine), 48 h incubation, SYBR Green I) is given as 2.09 ± 0.08 µM.

Source: US10287228B2, “Antimalarial agent, methods and uses thereof” (UNIVERSIDADE DO PORTO, priority 2015, dated 2019)
